{
  "source": "patent US8229872B2",
  "about": "“Modeling and control for highly variable and nonlinear systems” (priority 2007, dated 2012)",
  "origin": "cited, not measured here",
  "tested_on": "receptors of the neuromuscular junction",
  "conditions": "isolated cat anterior tibialis and sartorius muscles; ref [18]",
  "data": [
    {"smiles": "COc1cc2c3cc1Oc1cc(ccc1O)C[C@@H]1c4c(cc(OC)c(O)c4Oc4ccc(cc4)C[C@@H]3N(C)CC2)CC[N+]1(C)C", "note": "[tubocurarine]", "values": [
      {"measurement": "receptors that had to be blocked by the antagonist before block was noticeable", "result": "76±5", "unit": "%"},
      {"measurement": "receptors that had to be blocked for near complete blockade", "result": "92±16", "unit": "%"}
    ]}
  ]
}
